Experimental data: PubChem BioAssay AID504702 (Southern Research Specialized Biocontainment Screening …, 2011)
Calls of active or inactive are those of the source. No rule for the calls is given here.

Experiments:
[1] = M. tuberculosis growth inhibition with meropenem, dose response, H37Rv, set 2 (AID 504702);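 also: growth read by Alamar Blue after 7 days plus overnight incubation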; conditions: M. tuberculosis H37Rv with meropenem, growth inhibition
[2] = tested on: M. tuberculosis H37Rv with meropenem, growth inhibition; experiment: as above; conditions: for IC90: measured here: IC90 growth with meropenem

With `Cc1ccccc1OCC(=O)Nc1ccccc1-c1ccccc1` the growth inhibition ([1]; at 18.8 µM (top of the series)) was 23.6% (inactive), the IC50 [2] was 14.6 µM and the IC90 [2] was greater than 25 µM.

For `S=C(Nc1ccccc1)Nc1ccc(Cl)cn1`, the growth inhibition ([1]; at 18.8 µM (top of the series)) was 1.73% (inactive), the IC50 [2] was 6.64 µM and the IC90 [2] was greater than 25 µM.

In the case of `O=C(Cc1ccccc1Cl)Nc1nc2ccccc2[nH]1`, the growth inhibition ([1]; at 18.8 µM (top of the series)) is reported as -1.22% (inactive), the IC50 [2] is reported as 18.9 µM and the IC90 [2] is reported as greater than 25 µM.

For `Cc1cc(C)c(OCC(=O)Nc2nc3ccccc3[nH]2)c(C)c1`, the growth inhibition ([1]; at 18.8 µM (top of the series)) was 5.17% (inactive), the IC50 [2] was 5.55 µM and the IC90 [2] was greater than 25 µM.

For `c1ccc(-c2cc(N3CCOCC3)nc3ccccc23)cc1`, the growth inhibition ([1]; at 25 µM (top of the series)) was 6.06% (inactive), the IC50 [2] was 10 µM and the IC90 [2] was greater than 18.8 µM.

With `CC(=O)c1c(C)n(-c2ccc(C)cc2)c2ccc(O)cc12` the growth inhibition ([1]; at 25 µM (top of the series)) was -1.38% (inactive).

In the case of `Cc1ccc(OCC(=O)Nc2nc3ccc(F)cc3s2)cc1`, the growth inhibition ([1]; at 25 µM (top of the series)) is reported as -0.17% (inactive).

For `COc1cccc(-c2ccc(-c3noc(-c4ccccc4F)n3)c(OC)n2)c1`, the growth inhibition ([1]; at 18.8 µM (top of the series)) was 5.58% (inactive) and the IC90 [2] was greater than 25 µM.

In the case of `CC(C)(Oc1ccc(Cl)cc1)C(=O)Nc1nc2ccccc2s1`, the growth inhibition ([1]; at 25 µM (top of the series)) is reported as 1.22% (inactive).

With `CCOc1ccc2nc(NC(=O)C(C)Oc3ccccc3F)sc2c1` (configuration not stated) the growth inhibition ([1]; at 25 µM (top of the series)) was 2.03% (inactive).

For `COc1ccc2nc(NC(=O)COc3c(C)cc(C)cc3C)sc2c1`, the growth inhibition ([1]; at 25 µM (top of the series)) was -3.9% (inactive).

In the case of `CCOc1ccc2nc(NC(=O)COc3ccc(OC)cc3)sc2c1`, the growth inhibition ([1]; at 25 µM (top of the series)) is reported as -8.22% (inactive).

With `CCOc1ccc2nc(NC(=O)COc3ccc(Cl)c(C)c3)sc2c1` the growth inhibition ([1]; at 25 µM (top of the series)) was -5.37% (inactive).

In the case of `N/C(=N\c1nc2cc(Cl)ccc2o1)NC(=O)c1ccccc1`, the growth inhibition ([1]; at 25 µM (top of the series)) is reported as -0.66% (inactive).

With `CCC(=O)N/C(N)=N/c1nc2ccccc2o1` the growth inhibition ([1]; at 25 µM (top of the series)) was -1.89% (inactive).

In the case of `Cc1cc2cc(F)ccc2n1-c1ccccc1`, the growth inhibition ([1]; at 25 µM (top of the series)) is reported as 5.53% (inactive).

With `COC(=O)c1ccc2nc(NC(=O)COc3ccccc3)sc2c1` the growth inhibition ([1]; at 25 µM (top of the series)) was 15.1% (inactive).

For `COc1ccc2nc(NC(=O)COc3ccccc3)sc2c1`, the growth inhibition ([1]; at 25 µM (top of the series)) was -1.31% (inactive).

With `Cc1ccc(OCC(=O)Nc2cccc3ncccc23)c(C)c1` the growth inhibition ([1]; at 25 µM (top of the series)) was 1.76% (inactive).

With `CCOc1ccc2[nH]ccc2c1` the growth inhibition ([1]; at 25 µM (top of the series)) was 2.77% (inactive).

In the case of `CC(=O)Nc1ccc2nc(NC(=O)Cc3ccccc3)sc2c1`, the growth inhibition ([1]; at 25 µM (top of the series)) is reported as -7.72% (inactive).

In the case of `O=C(O)CCC(=O)Nc1nc2ccccc2s1`, the growth inhibition ([1]; at 25 µM (top of the series)) is reported as -2.73% (inactive).

For `COc1ccc2nc(NC(=O)C(C)Oc3ccccc3)sc2c1` (configuration not stated), the growth inhibition ([1]; at 25 µM (top of the series)) was -2.23% (inactive).

In the case of `CCCN1CC(O)=C(c2nc3ccccc3s2)C1=N`, the growth inhibition ([1]; at 25 µM (top of the series)) is reported as 1.43% (inactive).

For `Cc1ccc(OCC(=O)Nc2nnn(C)n2)c(C)c1`, the growth inhibition ([1]; at 25 µM (top of the series)) was -3.74% (inactive).

In the case of `N/C(=N\c1nc2ccccc2o1)NC(=O)COc1ccc2ccccc2c1`, the growth inhibition ([1]; at 25 µM (top of the series)) is reported as -2.85% (inactive).

In the case of `CCOc1ccc2c(ccn2-c2ccccc2)c1`, the growth inhibition ([1]; at 25 µM (top of the series)) is reported as -1.15% (inactive).

In the case of `Cc1ccccc1OCC(=O)Nc1ncn[nH]1`, the growth inhibition ([1]; at 25 µM (top of the series)) is reported as 0.97% (inactive).

With `O=C(CC12CC3CC(CC(C3)C1)C2)NCc1ccc(F)cc1` the growth inhibition ([1]; at 18.8 µM (top of the series)) was -0.16% (inactive) and the growth inhibition ([1]; at 25 µM (top of the series)) was -0.41% (inactive).

In the case of `O=C(COc1ccccc1)Nc1nc2ccccc2s1`, the growth inhibition ([1]; at 25 µM (top of the series)) is reported as -1.01% (inactive).
